Experimental data reported in patent publication US20260317356A1, “SMALL MOLECULE MODULATORS OF OGG1” (AZKARRA THERAPEUTICS, INC., priority 2023, published 2026).

molecular target: hOGG1 (Homo sapiens, UniProt O15527); assay: Biochemical fluorescence assay to measure enzymatic activity of hOGG1 (OGG1/APEX IC50); design: Protein His-hOGG1 (12-323) was prepared; His (N); host or cells: E. coli; settings: 1 nM OGG1+2 nM APEX+6 nM dsDNA (8-oxo-dG substrate); pH 7.5; RT 40 min; read-out: OGG1/APEX IC50
Sequence (O15527 12-323): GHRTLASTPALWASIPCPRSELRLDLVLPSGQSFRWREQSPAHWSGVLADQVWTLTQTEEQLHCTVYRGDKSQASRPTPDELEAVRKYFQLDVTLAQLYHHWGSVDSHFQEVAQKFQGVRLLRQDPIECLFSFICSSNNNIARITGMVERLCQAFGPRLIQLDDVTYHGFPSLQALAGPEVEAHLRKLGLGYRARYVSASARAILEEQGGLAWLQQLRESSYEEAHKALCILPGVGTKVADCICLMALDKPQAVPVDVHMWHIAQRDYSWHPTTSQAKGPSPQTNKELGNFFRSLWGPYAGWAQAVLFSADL
How it was run: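 His-hOGG1 (12-323, E. coli) at 1 nM with 2 nM hAPE1/APEX1, preincubated 20 min RT with compound. Then 6 nM 8-oxo-dG dsDNA substrate added, 40 min at RT in Tris pH 7.5, 100 mM KCl. TAMRA fluorescence (Ex520/Em600) converted to % inhibition vs controls; IC50 from 3-parameter fit of 10-point curve.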

Row | Structure (SMILES) | IC50 [µM]
1 | COCc1ccc(C)c2c1NC(=O)N([C@H]1CC[C@@H](C(=O)Nc3ccc(C)c(OC)c3)CC1)C2 [Example 1, (1s,4s)-N-(3-Methoxy-4-methylphenyl)-4-(8-(methoxymethyl)-5-methyl-2-oxo-1,2-dihydroquinazolin-3(4H)-yl)cyclohexanecarboxamide] | 1 to 10
2 | COc1cc(NC(=O)[C@H]2CC[C@@H](N3Cc4c(C)cc(CNC(C)=O)cc4NC3=O)CC2)ccc1C [Example 27, (1s,4s)-4-(7-(Acetamidomethyl)-5-methyl-2-oxo-1,2-dihydroquinazolin-3(4H)-yl)-N-(3-methoxy-4-methylphenyl)cyclohexanecarboxamide] | < 0.1
3 | COc1cc(NC(=O)C[C@H]2C[C@H](N3Cc4c(Br)cccc4C3=O)C2)ccc1C [Example 187, 2-((1r,3r)-3-(4-Bromo-1-oxoisoindolin-2-yl)cyclobutyl)-N-(3-methoxy-4-methylphenyl)acetamide] | > 10
4 | Cc1cc(NCCN(C)C)cc2c1CN([C@H]1CC[C@@H](C(=O)Nc3nc(CCO)cs3)CC1)C2=O [Example 131, (1s,4s)-4-(6-((2-(Dimethylamino)ethyl)amino)-4-methyl-1-oxoisoindolin-2-yl)-N-(4-(2-hydroxyethyl)thiazol-2-yl)cyclohexane-1-carboxamide] | 1 to 10
5 | COc1cc(NC(=O)[C@H]2CC[C@@H](N3Cc4c(ccc(OC5CNC5)c4C)NC3=O)CC2)ccc1C [Example 49, (1s,4s)-4-(6-(Azetidin-3-yloxy)-5-methyl-2-oxo-1,2-dihydroquinazolin-3(4H)-yl)-N-(3-methoxy-4-methylphenyl)cyclohexanecarboxamide] | 0.1 to 1
6 | CNC(=O)c1cc(C)c2c(c1)NC(=O)N([C@H]1CC[C@@H](C(=O)Nc3ccc(C)c(OC)c3)CC1)C2 [Example 80, 3-((1s,4s)-4-(3-methoxy-4-methylphenylcarbamoyl)cyclohexyl)-N,5-dimethyl-2-oxo-1,2,3,4-tetrahydroquinazoline-7-carboxamide] | < 0.1
7 | COc1cc(NC(=O)[C@H]2CC[C@@H](N3Cc4c(Br)cc(NC5CNC5)cc4C3=O)CC2)ccc1C [Example 180, (1s,4s)-4-(6-(Azetidin-3-ylamino)-4-bromo-1-oxoisoindolin-2-yl)-N-(3-methoxy-4-methylphenyl)cyclohexanecarboxamide] | < 0.1
8 | Cn1c(NC(=O)[C@H]2CC[C@@H](N3Cc4c(Br)cccc4C3=O)CC2)nc2ccccc21 [Example 190, (1s,4s)-4-(4-Bromo-1-oxoisoindolin-2-yl)-N-(1-methyl-1H-benzo[d]imidazol-2-yl)cyclohexanecarboxamide] | 1 to 10
9 | COc1cc(NC(=O)[C@H]2CC[C@@H](N3Cc4c(C)cc(C5=CCNCC5)cc4C3=O)CC2)ccc1C [Example 146, (1s,4s)-N-(3-Methoxy-4-methylphenyl)-4-(4-methyl-1-oxo-6-(1,2,3,6-tetrahydropyridin-4-yl)isoindolin-2-yl)cyclohexanecarboxamide] | < 0.1
10 | COc1cc(NC(=O)[C@@H]2[C@@H]3C[C@H](N4Cc5c(Br)cccc5C4=O)C[C@@H]32)ccc1C (single isomer, unassigned) [Example 267] | > 10
11 | C=Cc1cc(C)c2c(c1)NC(=O)N([C@H]1CC[C@@H](C(=O)Nc3ccc(C)c(OC)c3)CC1)C2 [Example 83, (1s,4s)-N-(3-methoxy-4-methylphenyl)-4-(5-methyl-2-oxo-7-vinyl-1,2-dihydroquinazolin-3(4H)-yl)cyclohexanecarboxamide] | 0.1 to 1
12 | COc1cc(NC(=O)[C@H]2CC[C@@H](N3Cc4c(Br)cc(NCC(C)O)cc4C3=O)CC2)ccc1C (some centres unmarked) [Example 179, (1s,4s)-4-(4-Bromo-6-(2-hydroxypropylamino)-1-oxoisoindolin-2-yl)-N-(3-methoxy-4-methylphenyl)cyclohexanecarboxamide] | 0.1 to 1
13 | COc1cc(NC(=O)[C@H]2CC[C@@H](N3Cc4c(C)cnc(CN)c4NC3=O)CC2)ccc1C [Example 20, (1s,4s)-4-(8-(Aminomethyl)-5-methyl-2-oxo-1,2-dihydropyrido[3,4-d]pyrimidin-3(4H)-yl)-N-(3-methoxy-4-methylphenyl)cyclohexanecarboxamide] | < 0.1
14 | COc1cc(NC(=O)[C@H]2CC[C@@H](N3Cc4c(C)ccc(N5CC(OC)C5)c4NC3=O)CC2)ccc1C [Example 38, (1s,4s)-N-(3-Methoxy-4-methylphenyl)-4-(8-(3-methoxyazetidin-1-yl)-5-methyl-2-oxo-1,2-dihydroquinazolin-3(4H)-yl)cyclohexanecarboxamide] | < 0.1
15 | COc1cc(NC(=O)[C@H]2CC[C@@H](n3oc4c(Br)cccc4c3=O)CC2)ccc1C [Example 184, (1s,4s)-4-(7-Bromo-3-oxobenzo[d]isoxazol-2(3H)-yl)-N-(3-methoxy-4-methylphenyl)cyclohexanecarboxamide] | > 10

Other lines, results leading:

Row | IC50 [µM] | Structure (SMILES)
16 | 0.1 to 1 | COc1cc(NC(=O)[C@H]2CC[C@@H](N3Cc4c(Cl)cccc4C3=O)CC2)ccc1C [Example 149, (1s,4s)-4-(4-Chloro-1-oxoisoindolin-2-yl)-N-(3-methoxy-4-methylphenyl)cyclohexanecarboxamide]
17 | 0.1 to 1 | COc1ccc(NC(=O)[C@H]2CC[C@@H](N3Cc4c(C)cccc4C3=O)CC2)cc1F [Example 224, (1s,4s)-N-(3-Fluoro-4-methoxyphenyl)-4-(4-methyl-1-oxoisoindolin-2-yl)cyclohexanecarboxamide]
18 | 0.1 to 1 | COc1ncc(NC(=O)[C@H]2CC[C@@H](N3Cc4c(C)cccc4C3=O)CC2)cc1C [Example 244, (1s,4s)-N-(6-Methoxy-5-methylpyridin-3-yl)-4-(4-methyl-1-oxoisoindolin-2-yl)cyclohexanecarboxamide]
19 | 1 to 10 | COc1ccc(NC(=O)[C@H]2CC[C@@H](N3Cc4c(C)cccc4C3=O)CC2)c(F)c1 [Example 242, (1s,4s)-N-(2-Fluoro-4-methoxyphenyl)-4-(4-methyl-1-oxoisoindolin-2-yl)cyclohexanecarboxamide]
20 | 0.1 to 1 | Cc1cccc2c1CN([C@H]1CC[C@@H](C(=O)Nc3nc4ccccc4[nH]3)CC1)C2=O [Example 274, (1s,4s)-N-(1H-benzo[d]imidazol-2-yl)-4-(4-methyl-1-oxoisoindolin-2-yl)cyclohexanecarboxamide]
21 | 0.1 to 1 | Cc1cccc2c1CN([C@H]1CC[C@@H](C(=O)Nc3ccc(Cl)c(F)c3)CC1)C2=O [Example 241, (1s,4s)-N-(4-Chloro-3-fluorophenyl)-4-(4-methyl-1-oxoisoindolin-2-yl)cyclohexanecarboxamide]
22 | 1 to 10 | O=C1c2cccc(Br)c2CN1[C@H]1CC[C@@H](C(=O)Nc2ccc3c(c2)OCO3)CC1 [Example 185, (1s,4s)-N-(Benzo[d][1,3]dioxol-5-yl)-4-(4-bromo-1-oxoisoindolin-2-yl)cyclohexanecarboxamide]
23 | > 10 | COc1cc(NC(=O)[C@H]2CC[C@H](n3[nH]c4c(Br)cccc4c3=O)CC2)ccc1C (single isomer, unassigned) [Example 159, (1r,4r)-4-(7-Bromo-3-oxo-1H-indazol-2(3H)-yl)-N-(3-methoxy-4-methylphenyl)cyclohexanecarboxamide]
24 | 1 to 10 | COc1cc(NC(=O)[C@H]2CC[C@@H](N3Cc4c(cccc4C(F)(F)F)C3=O)CC2)ccc1C [Example 147, (1s,4s)-N-(3-Methoxy-4-methylphenyl)-4-(1-oxo-4-(trifluoromethyl)isoindolin-2-yl)cyclohexanecarboxamide]
25 | > 10 | COc1cc(NC(=O)[C@H]2CC[C@@H](N3Cc4c(C)cccc4C3=O)CC2)ccc1C#N [Example 265, (1s,4s)-N-(4-Cyano-3-methoxyphenyl)-4-(4-methyl-1-oxoisoindolin-2-yl)cyclohexanecarboxamide]
26 | < 0.1 | COc1cc(NC(=O)[C@H]2CC[C@@H](N3Cc4c(ccnc4C)NC3=O)CC2)ccc1C [Example 43, (1s,4s)-N-(3-Methoxy-4-methylphenyl)-4-(5-methyl-2-oxo-1,2-dihydropyrido[4,3-d]pyrimidin-3(4H)-yl)cyclohexanecarboxamide]
27 | 0.1 to 1 | COc1cc(NC(=O)[C@H]2CC[C@@H](N3Cc4c(C)cccc4OC3=O)CC2)ccc1C [Example 115, (1s,4s)-N-(3-methoxy-4-methylphenyl)-4-(5-methyl-2-oxo-2H-benzo[e][1,3]oxazin-3(4H)-yl)cyclohexane-1-carboxamide]
28 | < 0.1 | COc1cc(NC(=O)[C@H]2CC[C@@H](N3Cc4c(C)ccc(C)c4NC3=O)CC2)ccc1C [Example 25, (1s,4s)-4-(5,8-Dimethyl-2-oxo-1,2-dihydroquinazolin-3(4H)-yl)-N-(3-methoxy-4-methylphenyl)cyclohexanecarboxamide]
29 | 1 to 10 | COc1ccc(NC(=O)[C@H]2CC[C@@H](N3Cc4c(C)cccc4C3=O)CC2)cn1 [Example 249, (1s,4s)-N-(6-Methoxypyridin-3-yl)-4-(4-methyl-1-oxoisoindolin-2-yl)cyclohexanecarboxamide]
30 | > 10 | Cc1ccc(NC(=O)[C@H]2CC[C@@H](N3Cc4c(C)cccc4C3=O)CC2)cc1C1COC1 [Example 125, (1s,4s)-4-(4-Methyl-1-oxoisoindolin-2-yl)-N-(4-methyl-3-(oxetan-3-yl)phenyl)cyclohexane-1-carboxamide]
31 | 1 to 10 | COc1cc(NC(=O)[C@]2(C)CC[C@@H](N3Cc4c(C)cccc4C3=O)CC2)ccc1C [Example 278, (1r,4r)-N-(3-methoxy-4-methylphenyl)-1-methyl-4-(4-methyl-1-oxoisoindolin-2-yl)cyclohexane-1-carboxamide]
32 | < 0.1 | COc1cc(NC(=O)[C@H]2CC[C@@H](N3Cc4c(ccc(O)c4C)NC3=O)CC2)ccc1C [Example 60, (1s,4s)-4-(6-Hydroxy-5-methyl-2-oxo-1,2-dihydroquinazolin-3(4H)-yl)-N-(3-methoxy-4-methylphenyl)cyclohexanecarboxamide]
